# B1: wild-type V-CPO from C. inaequalis: wild-type vanadium chloroperoxidase from C. inaequalis (protein, UniProt P49053 1-609, looked up)
# Vanadium chloroperoxidase: MGSVTPIPLPKIDEPEEYNTNYILFWNHVGLELNRVTHTVGGPLTGPPLSARALGMLHLAIHDAYFSICPPTDFTTFLSPDTENAAYRLPSPNGANDARQAVAGAALKMLSSLYMKPVEQPNPNPGANISDNAYAQLGLVLDRSVLEAPGGVDRESASFMFGEDVADVFFALLNDPRGASQEGYHPTPGRYKFDDEPTHPVVLIPVDPNNPNGPKMPFRQYHAPFYGKTTKRFATQSEHFLADPPGLRSNADETAEYDDAVRVAIAMGGAQALNSTKRSPWQTAQGLYWAYDGSNLIGTPPRFYNQIVRRIAVTYKKEEDLANSEVNNADFARLFALVDVACTDAGIFSWKEKWEFEFWRPLSGVRDDGRPDHGDPFWLTLGAPATNTNDIPFKPPFPAYPSGHATFGGAVFQMVRRYYNGRVGTWKDDEPDNIAIDMMISEELNGVNRDLRQPYDPTAPIEDQPGIVRTRIVRHFDSAWELMFENAISRIFLGVHWRFDAAAARDILIPTTTKDVYAVDNNGATVFQNVEDIRYTTRGTREDPEGLFPIGGVPLGIEIADEIFNNGLKPTPPEIQPMPQETPVQKPVGQQPVKGMWEEEQAPVVKEAP
# Key:
# E. coli [1] = test: Biocidal rosine paint formulations on steel plates, DAPI fluorescence, qualitative; format: cell-based; details: Br- 1 mM, H2O2, 3 days at 37° C.
# Protocol: A self-polishing rosine formulation was prepared as follows: 22 g of Rosine/Kolophonium (Aldrich) was mixed with 8 g Xylene (Aldrich) and stirred 45 min until well dissolved. Under continuous stirring 0.4 g Thixatrol Max (Elementis) and 1.5 g Bentone SD 1 (Elementis) were added and stirred for at least 5 min. Under continuous stirring 10 g zinc oxide (Aldrich) [optional], 9 g iron oxide red (Aldrich) [optional], 15 g talcum (Aldrich), ×g of biocide and 10-×g of barium sulfate as a filler were added, and the whole mixture was dispersed for at least 15 min at 600-900 rpm. Under stirring 8 g Xylene (Aldrich), 6.7 g Hordaflex LC 50 (Leuna-Tenside) and 8 g petrol 140/180 (Merck) were added.
# Steel plates of 2×2 cm were painted directly with no previous treatment with said rosine formulation by brushing and drying for 3 days at room temperature. No surface characterization was performed. […]
# After incubation the substrates were gently washed with LB media and PBS buffer. Bacterial cells were stained with […] (DAPI, 1 mg/ml), and fluorescence analysis was performed using an Olympus AHBT3 light microscope together with an AH3-RFC reflected light fluorescence attachment. The presence of bacterial colonies was easily detected by the presence of bright blue “dots” or “clusters”. […]
# E. coli [2] = test: E. coli growth inhibition test, OD at 595 nm; format: cell-based
# Protocol: Overnight cultures of E. coli cells (OneShot® Chemically Competent E. Coli, Cat. No. C4040-10, Invitrogen) in LB media (Cat. No. X968.2, Carl-Roth, Germany) were initially done. For the growth inhibition tests cultures were prepared by initially dispersing VO(acac)2 (Sigma Aldrich, 0.08 mg/ml) in 5 ml LB medium to which KBr (1 mM) and H2O2 (100 μM) were added. To start the culture 20 μl of the overnight E. coli stock was added. The cultures were kept at 37° C. with agitation, and the OD was measured at 595 nm at different time points until 180 min (beginning of stationary phase). As controls either only VO(acac)2 or only H2O2/Br^− was added to the cultures in the concentrations given above. For comparative purposes the same assay was done with V2O5 nanowires (Example 1) in the same concentration range as VO(acac)2 (0.08 mg/ml).
# V-CPO from C. inaequalis = V-CPO from C. inaequalis (Curvularia inaequalis, UniProt P49053, L241V/P395D/T343A); details: cited from earlier work
# Chain of V-CPO from C. inaequalis (P49053 whole entry L241V/T343A/P395D): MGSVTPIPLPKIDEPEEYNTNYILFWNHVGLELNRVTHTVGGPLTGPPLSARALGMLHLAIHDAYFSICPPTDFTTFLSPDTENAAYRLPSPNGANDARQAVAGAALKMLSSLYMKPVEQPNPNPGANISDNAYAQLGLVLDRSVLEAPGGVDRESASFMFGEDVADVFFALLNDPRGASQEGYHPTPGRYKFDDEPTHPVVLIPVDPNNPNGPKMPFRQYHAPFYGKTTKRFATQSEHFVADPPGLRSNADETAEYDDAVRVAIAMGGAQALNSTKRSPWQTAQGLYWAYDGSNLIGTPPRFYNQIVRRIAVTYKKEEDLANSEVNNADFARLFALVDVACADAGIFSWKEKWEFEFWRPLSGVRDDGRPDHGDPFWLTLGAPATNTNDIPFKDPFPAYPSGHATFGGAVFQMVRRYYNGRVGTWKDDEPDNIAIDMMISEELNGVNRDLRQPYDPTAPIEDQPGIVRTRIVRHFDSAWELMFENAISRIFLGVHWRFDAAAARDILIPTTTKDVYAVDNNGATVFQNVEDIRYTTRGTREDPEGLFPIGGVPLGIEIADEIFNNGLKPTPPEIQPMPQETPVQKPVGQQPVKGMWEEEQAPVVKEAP
Molecule,adherence of E. coli to painted surface (E. coli [1]; 0.5% biocide in dry film),adherence of E. coli to painted surface (E. coli [1]; 10% biocide in dry film),"Decay in E. coli growth (%) (E. coli [2]; 0.08 mg/ml, KBr 1 mM, H2O2 100 μM as named in sample, 180 min)",antimicrobial activity by itself (E. coli [2]; without H2O2/Br-),optimal pH (V-CPO from C. inaequalis)
Vanadyl acetylacetonate [VO(acac)2],inhibited the adhesion of E. coli,inhibited the adhesion of E. coli,6,no relevant antimicrobial activity,–
B1,–,–,–,–,5.5

# Source: patent US20150191606A1, “USE OF VANADIUM-CONTAINING PARTICLES AS A BIOCIDE” (priority 2012, published 2015)
